In US9492426B2, “Mycophenolic acid analogues as anti-tumor chemosensitizing agents” (Texas A & M University System, priority 2011, dated 2016):
pIC50: −log10 of the molar value. Like-named read-outs stand apart in the source and are kept apart here.

What was measured:
pre-rRNA transcripts = assay: Real-time RT-PCR of pre-rRNA transcripts; type: cell-based
Description: The AC(t) values between the target message and two reference messages (HMG-14 and […]) were determined using the MyiQ single-color real-time PCR detection system and supermix SYBR green reagent. The AAC(t) values were measured from two biological replicates and two technical repeats (n=4). Primer sequences are: SJ1, 5′-[…]-3′ and 5′-[…]-3′; SJ2, 5′-[…]-3′ and 5′-[…]-3′; SJ3, 5′-[…]-3′ and 5′-[…]-3′; and 18S, 5′-[…]-3′ and 5′-[…]-3′.
The anti-tumor activity of MPA has been linked to nucleolar stress. To investigate whether the synergy of MPA on 5-FU is related to nucleolar stress, Applicants tested the anti-tumor effect of 5-FU in combination with two inhibitors (actinomycin D [AMD] and ADR). Both drugs trigger nucleolar disassembly, but differ in that low-dose AMD (0.05 ug/ml) inhibits the activity of RNA polymerase-I, whereas ADR (2 uM) inhibits the activity of RNA polymerase-II. […] To determine how 5-FU and MPA affect the synthesis or processing of pre-rRNAs, Applicants used real-time RT-PCR to measure the amounts of rRNA transcripts with the splice junction-1 (SJ-1), SJ-2, SJ-3, and 18S rRNA sequences (FIG. 3B). […] By contrast, 5-FU alone increases 47S pre-rRNA and decreases the amount of SJ-3-containing transcripts.

[1] = test system: dysplastic oral keratinocyte (DOK) cells; assay: Growth inhibition (IC50) and combination index in dysplastic oral keratinocyte cells; type: cell-based; details: single agent, read-out: IC50 concentration
Description: Cells were plated in 96-well plates for one day and received drug treatments for 3 days. The plating cell densities were 2,000 cells/well for human cancer cell lines, 3,000 cells/well for tumor sphere cells, and 10,000 cells/well for primary tumor cells. Following the addition of MTT solutions (10 μl, 5 mg/ml), cells were incubated for 4 hours to allow MTT to be metabolized to formazan. Formazan was then dissolved in DMSO and measured by spectrophotometer at 560 nm.
The tumor growth-inhibitory curves of individual drugs were first measured by the MTT assay over a range of five concentrations with three-fold increment. The half-inhibitory concentrations (IC50) were calculated by Calcusyn program (Biosoft, Ferguson, Mo.). The combined effects were measured by mixing two drugs at the 4:1, 2:1, 1:1, 1:2, or 1:4 ratio of their respective IC50 concentrations. Each combination was tested for its tumor growth-inhibitory effect over a range of five different dosages, and calculated for its CI using the Calcusyn program.

MDA-MB-231 cells = assay: BrdU labeling (cell proliferation) in MDA-MB-231 cells; type: cell-based, human; details: 5-FU 0.15 ug/ml alone or MPA 0.19 uM alone
Description: Primary antibodies used for immunofluorescence included rabbit anti-NS (Ab138, Cocalico), rat anti-BrdU (BU1/75, Accurate), and mouse anti-fibrillarin (38F3, EnCor) antibodies. To measure cell proliferation, cultures were treated with bromodeoxyuridine (BrdU, Accurate, OBT0030) 1 hour before harvest.

nucleostemin = assay: Nucleostemin protein level in MDA-MB-231 cells; type: cell-based, human
Description: To test the idea that nucleostemin may be involved in mediating the synergy between MPA and 5-FU, Applicants first confirmed that MPA treatment decreases the protein level of endogenous nucleostemin but not that of GNL3L and Ngp-1, the two nucleostemin homologues in vertebrate (FIG. 4A). […] Applicants noted that cells in the three control groups appear to be more resistant to the 5-FU/MPA-combined treatment than to the parental MDA-MB-231 cells, which may be caused by the G418/puromycin drug selection process.

Row | SMILES | 47S pre-rRNA (pre-rRNA transcripts) | amount of SJ-3-containing transcripts (pre-rRNA transcripts) | IC50 ([1]; Keratinocyte) [µg/mL] | proliferative rate (BrdU labeling) (MDA-MB-231 cells) | amount of pre-rRNA transcripts (SJ-1, SJ-2, SJ-3, 18S), including 47S pre-rRNA (pre-rRNA transcripts) | pIC50 ([1]; Keratinocyte) | protein level of endogenous nucleostemin (nucleostemin) | pIC50 [1]
1 | O=c1[nH]cc(F)c(=O)[nH]1 [5-FU, 5-fluorouracil] | increases | decreases | 1.67 | does not decrease | – | – | – | –
2 | COc1c(C)c2c(c(O)c1C/C=C(\C)CCC(=O)O)C(=O)OC2 [MPA, mycophenolic acid] | – | – | – | does not decrease | decrease the amount of pre-rRNA transcripts | 5.18 | decreases | –
3 | O=C1[O][Pt]2([NH][C@@H]3CCCC[C@H]3[NH]2)[O]C1=O [oxaliplatin] | – | – | – | – | – | – | – | 6.08
4 | CC(=O)O[C@H]1C(=O)[C@@]2(C)[C@H]([C@H](OC(=O)c3ccccc3)[C@]3(O)C[C@H](OC(=O)[C@H](O)[C@@H](NC(=O)c4ccccc4)c4ccccc4)C(C)=C1C3(C)C)[C@]1(OC(C)=O)CO[C@@H]1C[C@@H]2O [paclitaxel] | – | – | – | – | – | 6.68 | – | –
